What was measured:
[1] = Room temperature stability of crystalline as compared to amorphous drug substance (water content, Karl Fischer); format: physicochemical; settings: for Assay / Total Impurities: Room temperature
Text: The Drug Substance (DS) Hydrocortisone Sodium Phosphate (HSP) is a sodium salt of phosphate ester of hydrocortisone. The high-water solubility of HSP enables the development of aqueous injectable solutions. The DS meets the requirements of USP monograph, “Hydrocortisone sodium phosphate, USP,” except for loss on drying (LOD) specification, instead the Karl Fischer method is used to test water content which meets the British Pharmacopoeia specification. This is because the crystalline form obtained through the manufacturing process is a crystalline hydrate. To meet the USP LOD specification of NMT 5%, the manufacturing process would need to involve a lyophilization step which leads to the formation of an amorphous form of HSP. […] The water content test method utilizes the British Pharmacopoiea (BP) HSP monograph semi-micro water content method instead of the less specific USP HSP monograph water content Loss on Drying method. […]

[2] = Genotoxicity assessment (ICH M7)
[3] = Stability study of HCP prototype formulations in PFS at 25° C. and 40° C. (appearance, pH, assay and related substances by stability indicating HPLC); settings: accelerated storage 40° C., effect of pH
[4] = Forced degradation of hydrocortisone sodium phosphate API under stress conditions (0.1 N HCl, 0.1 N NaOH, dry heat); format: physicochemical; settings: 3 stress conditions: 0.1 N HCl, qualitative
Procedure: To develop this method, Hydrocortisone sodium phosphate API was kept under stress conditions. These stress conditions included treatment with 0.1 N HCl, 0.1 N NaOH and dry heat. This was performed to investigate the nature of API and its compatibility with the stress conditions. It also helped generate degradation products to assess the specificity of the HPLC method under development. Information on degradation products and the conditions used to generate them was used to optimize the method for better resolution of such degradation products on chromatogram. FIGS. 3A-3C show chromatograms of HCP under stress conditions.
The proportions in which the degradants formed depended on the stress condition. Stress studies performed on the API were done for qualitative purpose only.

Assay ([1]; Time 0) [%] | Total Impurities ([1]; Time 0) [%] | Assay ([1]; Time 3 mo.) [%] | Total Impurities ([1]; Time 3 mo.) [%] | Assay ([1]; Time 6 mo.) [%] | Total Impurities ([1]; Time 6 mo.) [%] | Compound | other results
97.8 | 0.20 | 99.0 | 1.1 | 96.5 | 1.5 | C[C@]12CCC(=O)C=C1CC[C@@H]1[C@@H]2[C@@H](O)C[C@@]2(C)[C@H]1CC[C@]2(O)C(=O)COP(=O)([O-])[O-].[Na+].[Na+] | 
100.9 | 0.00 | 101.4 | 0.06 | 99.5 | 0.00 | C[C@]12CCC(=O)C=C1CC[C@@H]1[C@@H]2[C@@H](O)C[C@@]2(C)[C@H]1CC[C@]2(O)C(=O)COP(=O)(O)O [Hydrocortisone Sodium Phosphate] | 
 |  |  |  |  |  | C[C@]12CCC(=O)C=C1CC[C@@H]1[C@@H]2[C@@H](O)C[C@@]2(C)[C@H]1CC[C@]2(O)C(=O)COP(=O)(O)O [Hydrocortisone sodium phosphate] | genotoxicity assessment [2]: not a genotoxic product; susceptibility to hydrolysis [3]: prone to general acid-catalyzed hydrolysis at pH<7.5
 |  |  |  |  |  | C[C@]12CCC(=O)C=C1CC[C@@H]1[C@@H]2[C@@H](O)C[C@@]2(C)[C@H]1CC[C@]2(O)C(=O)COP(=O)(O)O [hydrocortisone sodium phosphate] | hygroscopicity ([1]; room temperature): highly hygroscopic; stability compared to crystalline form ([1]; room temperature): not stable as compared to crystalline form
 |  |  |  |  |  | Hydrocortisone sodium phosphate | forced degradation outcome [4]: formation of Hydrocortisone, other common degradants
